The target of this assay is T1, S1P5 receptors (Homo sapiens, UniProt Q9H228).
T1 construct: expressed in transfected cells; host or cells: CHO cells (membranes)
T1 sequence (Q9H228 whole entry): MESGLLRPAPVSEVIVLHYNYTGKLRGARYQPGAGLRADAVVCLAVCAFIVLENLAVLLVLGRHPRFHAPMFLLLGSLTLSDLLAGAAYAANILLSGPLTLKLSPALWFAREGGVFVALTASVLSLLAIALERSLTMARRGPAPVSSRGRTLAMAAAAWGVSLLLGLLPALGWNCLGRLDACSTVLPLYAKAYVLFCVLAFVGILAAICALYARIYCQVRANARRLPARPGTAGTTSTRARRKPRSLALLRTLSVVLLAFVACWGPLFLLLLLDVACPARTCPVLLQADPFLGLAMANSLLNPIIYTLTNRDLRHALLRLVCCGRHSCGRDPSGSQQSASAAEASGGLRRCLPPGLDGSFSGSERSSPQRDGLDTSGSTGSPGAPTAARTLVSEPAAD
Briefly: [35S]-GTPγS binding assay on CHO-S1P5 membranes (S1P5 agonism). Format: biochemical. The note with it: membranes of CHO cells expressing recombinant S1P5; measure of S1P5 agonism. The protocol:
CHO cells expressing recombinant S1P5 receptors were cultured in 500 cm^2 culture trays and, once confluent, rinsed and detached with cell-lifting buffer (10 mM HEPES, 154 mM NaCl, 6.85 mM EDTA, pH 7.4). Cells were then pelleted by centrifugation, resuspended, and homogenized in membrane preparation buffer (10 mM HEPES and 10 mM EDTA, pH 7.4) using a Polytron PT 1200E homogenizer (Kinematica, Luzern, Switzerland). Cellular proteins were pelleted by centrifugation at 48,000×g at 4° C. for 30 minutes. The resulting supernatant was discarded, and the pellet was re-suspended again in membrane preparation buffer, homogenized for a second time, and then centrifuged again as described above. The final cellular protein pellet was suspended in ice cold resuspension buffer (10 mM HEPES and 0.1 mM EDTA, pH 7.4), divided into aliquots, and stored at −80° C. until use.
Functional binding assays for [^35S]-GTPγS were performed in 96-well non-binding surface plates with a final volume of 200 μL. The test compounds were serially diluted in DMSO and added to assay plates using a Tecan D300E digital printer with a total volume of 0.4 μL. The control sphingosine-1-phosphate (SIP) was prepared separately by preparing a 400 µM stock solution from a 100 nmol pellet of S1P in 10 mM Na2CO3 with 2% β-cyclodextrin. The serial dilution of S1P was done using complete assay buffer (20 mM HEPES, 10 mM MgCl2, 100 mM NaCl, 1 mM EDTA, 0.1% fatty acid free bovine serum albumin (BSA), and 30 μg/mL saponin, pH 7.4) and transferred to wells already containing 0.4 μL DMSO. All the wells were then loaded to a total volume of 40 μL of complete assay buffer, except the non-specific binding (NSB) wells. For NSB wells, 40 μL/well of 50 μM GTPγS (Sigma Aldrich, cat #G8634, St. Louis, MO) was added to wells containing 0.4 μL of DMSO. The assay was started by the addition of 120 μL/well of CHO-SIP receptor membrane solution containing 40 μg/mL of membrane protein, 16.67 μM guanosine diphosphate (GDP; Sigma Aldrich, cat #G7127, St. Louis, MO), and 2.5 mg/mL of WGA PVT SPA beads in complete buffer. Assay plates were then sealed and incubated at room temperature with gentle agitation for 30 minutes. Next, 40 μL/well of 1 nM of [^35S]-GTPγS (PerkinElmer, cat #NEG030X^250UC, Waltham, MA) in basic assay buffer (20 mM HEPES, 10 mM MgCl2, 100 mM NaCl, and 1 mM EDTA, pH7.4) was added to the assay plates to yield a final concentration of […] and the plates were further incubated for 40 minutes at room temperature with gentle agitation. The assay was terminated by centrifugation of the plates at 1000 rpm for 3 minutes using an Eppendorf 5810R centrifuge (Eppendorf, Hamburg, Germany) and G protein bound radioactivity was quantitated using a MicroBeta2 microplate scintillation counter (PerkinElmer, Waltham, MA). As G protein bound radioactivity directly correlates to receptor activation and coupling to the G protein, this assay is a measure of S1P5 agonism.
For orientation: GTPγS resists hydrolysis and so accumulates on activated G proteins.
With `Cc1cc(N2CC(c3c(Cl)cccc3Cl)C2)cc(C)c1CN1CC(C)(O)C1` [Compound 37, 1-(4-(3-(2,6-dichlorophenyl)azetidin-1-yl)-2,6-dimethylbenzyl)-3-methylazetidin-3-ol], the EC50 (in general, the concentration that produces a half-maximal response) lay in the range of 1 to 10 nM.

As to `CC1(O)CN(Cc2ccc(C3CN(c4c(Cl)cccc4Cl)C3)nc2)C1` [Compound 58, 1-((6-(1-(2,6-dichlorophenyl)azetidin-3-yl)pyridin-3-yl)methyl)-3-methylazetidin-3-ol], the EC50 fell in the range of 1000 to 10000 nM.

On to `CC1(O)CN(C2CCc3cc(C#Cc4cccc(F)c4)ccc32)C1` (single isomer, unassigned) [Compound 2b, 1-[5-[2-(3-fluorophenyl)ethynyl]indan-1-yl]-3-methyl-azetidin-3-ol], for which the EC50 fell in the range of 10 to 100 nM. To `Cc1cc(OCc2c(Cl)cccc2Cl)cc2c1C(N1CC(C)(O)C1)CC2` (single isomer, unassigned) [Compound 15b, 1-[5-[(2,6-dichlorophenyl)methoxy]-7-methyl-indan-1-yl]-3-methyl-azetidin-3-ol] belongs 1 to 10 nM.

In the case of `CC1(O)CCN(C2CCc3cc(C4CN(c5c(Cl)cccc5Cl)C4)ccc32)C1` (centres unmarked) [Compound 9, 1-(5-(1-(2,6-dichlorophenyl)azetidin-3-yl)-2,3-dihydro-1H-inden-1-yl)-3-methylpyrrolidin-3-ol], the EC50 was 100 to 1000 nM. The result for `Cc1c(-c2ccc(C3CC3)c(Cl)c2)ccc2c1CCC2N1CC(C)(O)C1` (single isomer, unassigned) [Compound 16b, 1-[5-(3-chloro-4-cyclopropyl-phenyl)-4-methyl-indan-1-yl]-3-methyl-azetidin-3-ol] reads 1 to 10 nM; that for `Cc1cc(CN2CC(C)(O)C2)cc(C)c1N1CC(c2c(Cl)cccc2Cl)C1` [Compound 63, 1-(4-(3-(2,6-dichlorophenyl)azetidin-1-yl)-3,5-dimethylbenzyl)-3-methylazetidin-3-ol], 1 to 10 nM; that for `Cc1c(OCc2c(Cl)cccc2Cl)ccc2c1CCC2N1CC(C)(O)C1` (single isomer, unassigned) [Compound 19a, 1-[5-[(2,6-dichlorophenyl)methoxy]-4-methyl-indan-1-yl]-3-methyl-azetidin-3-ol], 1 to 10 nM. Turning to `Cc1cc(C2CN(c3c(Cl)cccc3Cl)C2)cc(Cl)c1CN1CC(C)(O)C1` [Compound 49, 1-(2-chloro-4-(1-(2,6-dichlorophenyl)azetidin-3-yl)-6-methylbenzyl)-3-methylazetidin-3-ol], the EC50 was 10 to 100 nM. Take `Cc1cc(C2CN(c3ccccc3F)C2)cc(C)c1CN1CC(C)(O)C1` [Compound 44, 1-(4-(1-(2-fluorophenyl)azetidin-3-yl)-2,6-dimethylbenzyl)-3-methylazetidin-3-ol]: the EC50 lay in the range of 1000 to 10000 nM. The result for `CC1(O)CN(Cc2ccc(C3CN(c4c(Cl)cccc4Cl)C3)cc2)C1` [Compound 31, 1-(4-(1-(2,6-dichlorophenyl)azetidin-3-yl)benzyl)-3-methylazetidin-3-ol] reads 10 to 100 nM; that for `Cc1c(C#Cc2cccc(F)c2)ccc2c1CCC2N1CC(C)(O)C1` (single isomer, unassigned) [Compound 17a, 1-[5-[2-(3-fluorophenyl)ethynyl]-4-methyl-indan-1-yl]-3-methyl-azetidin-3-ol], 10 to 100 nM. In the case of `Cc1cc(CCc2c(Cl)cccc2Cl)cc2c1C(N1CC(C)(O)C1)CC2` (single isomer, unassigned) [Compound 14b, 1-[5-[2-(2,6-dichlorophenyl)ethyl]-7-methyl-indan-1-yl]-3-methyl-azetidin-3-ol], the EC50 was in the range of 1 to 10 nM. For `CC1(O)CN(C2CCc3cc(OCc4c(Cl)cccc4Cl)ccc32)C1` (single isomer, unassigned) [Compound 3b, 1-(5-((2,6-dichlorobenzyl)oxy)-2,3-dihydro-1H-inden-1-yl)-3-methylazetidin-3-ol], the EC50 was in the range of 10 to 100 nM. As to `Cc1cc(N2CC(c3c(Cl)cccc3Cl)C2)cc(C)c1CN1CCC(C)(O)CC1` [Compound 36, 1-(4-(3-(2,6-dichlorophenyl)azetidin-1-yl)-2,6-dimethylbenzyl)-4-methylpiperidin-4-ol], the EC50 was in the range of 100 to 1000 nM. As for `CC1(O)CN(Cc2ccc(N3CC(c4c(Cl)cccc4Cl)C3)cn2)C1` [Compound 66, 1-((5-(3-(2,6-dichlorophenyl)azetidin-1-yl)pyridin-2-yl)methyl)-3-methylazetidin-3-ol], the EC50 was 100 to 1000 nM. To `CCC1(O)CN(Cc2c(C)cc(C3CN(c4c(Cl)cccc4Cl)C3)cc2C)C1` [Compound 38, 1-(4-(1-(2,6-dichlorophenyl)azetidin-3-yl)-2,6-dimethylbenzyl)-3-ethylazetidin-3-ol] belongs 100 to 1000 nM; to `Cc1cc(-c2ccc(C3CC3)c(Cl)c2)cc2c1C(N1CC(C)(O)C1)CC2` (single isomer, unassigned) [Compound 10b, 1-[5-(3-chloro-4-cyclopropyl-phenyl)-7-methyl-indan-1-yl]-3-methyl-azetidin-3-ol], 1 to 10 nM; to `Cc1c(OCc2c(Cl)cccc2Cl)ccc2c1CCC2NCC(C)(C)O` (single isomer, unassigned) [Compound 20b, 1-((5-((2,6-dichlorobenzyl)oxy)-4-methyl-2,3-dihydro-1H-inden-1-yl)amino)-2-methylpropan-2-ol], 100 to 1000 nM.

As for `Cc1cc(C2CN(c3c(Cl)cccc3Cl)C2)cc(C2CC2)c1CN1CC(C)(O)C1` [Compound 54, 1-(2-cyclopropyl-4-(1-(2,6-dichlorophenyl)azetidin-3-yl)-6-methylbenzyl)-3-methylazetidin-3-ol], the EC50 is 10 to 100 nM.

Take `Cc1cc(C2CN(c3c(Cl)cccc3Cl)C2)cc(C)c1CN1CC(O)(C(F)F)C1` [Compound 40, 1-(4-(1-(2,6-dichlorophenyl)azetidin-3-yl)-2,6-dimethylbenzyl)-3-(difluoromethyl) azetidin-3-ol]: the EC50 was 100 to 1000 nM. The result for `CC1(O)CN(C2CCc3cc(-c4ccc(C5CC5)c(F)c4)ccc32)C1` (single isomer, unassigned) [Compound 4a, 1-(5-(4-cyclopropyl-3-fluorophenyl)-2,3-dihydro-1H-inden-1-yl)-3-methyl azetidin-3-ol] reads 10 to 100 nM. Turning to `CC1(O)CN(Cc2ccc(C3CN(c4c(Cl)cccc4Cl)C3)c(F)c2)C1` [Compound 60, 1-(4-(1-(2,6-dichlorophenyl)azetidin-3-yl)-3-fluorobenzyl)-3-methylazetidin-3-ol], the EC50 was 100 to 1000 nM. The result for `Cc1cc2c(cc1C#Cc1cccc(F)c1)CCC2N1CC(C)(O)C1` (single isomer, unassigned) [Compound 22b, 1-[5-[2-(3-fluorophenyl)ethynyl]-6-methyl-indan-1-yl]-3-methyl-azetidin-3-ol] reads 10 to 100 nM; that for `Cc1cc2c(cc1OCc1c(Cl)cccc1Cl)CCC2N1CC(C)(O)C1` (single isomer, unassigned) [Compound 24b, 1-[5-[(2,6-dichlorophenyl)methoxy]-6-methyl-indan-1-yl]-3-methyl-azetidin-3-ol], 1 to 10 nM. The result for `CC1(O)CN(Cc2ccc(N3CC(c4c(Cl)cccc4Cl)C3)cc2F)C1` [Compound 65, 1-(4-(3-(2,6-dichlorophenyl)azetidin-1-yl)-2-fluorobenzyl)-3-methylazetidin-3-ol] reads 10 to 100 nM; that for `Cc1c(CCc2c(Cl)cccc2Cl)ccc2c1CCC2N1CC(C)(O)C1` (single isomer, unassigned) [Compound 18b, 1-[5-[2-(2,6-dichlorophenyl)ethyl]-4-methyl-indan-1-yl]-3-methyl-azetidin-3-ol], 1 to 10 nM.

In the case of `CC1(O)CN(Cc2ccc(C3CN(c4c(Cl)cccc4Cl)C3)c3ccccc23)C1` [Compound 55, 1-((4-(1-(2,6-dichlorophenyl)azetidin-3-yl)naphthalen-1-yl)methyl)-3-methylazetidin-3-ol], the EC50 lay within 10 to 100 nM. The result for `Cc1cc2c(cc1C#Cc1cccc(F)c1)CCC2N1CC(C)(O)C1` (single isomer, unassigned) [Compound 22a, 1-[5-[2-(3-fluorophenyl)ethynyl]-6-methyl-indan-1-yl]-3-methyl-azetidin-3-ol] reads 10 to 100 nM.

Values taken from patent publication US20260022094A1, “Compounds for the Treatment of Neurodegenerative Diseases” (Celgene Corporation, priority 2022, published 2026).
